Measured values taken from PMC10574767, “Extractives from Artemisia afra with Anti-Bacterial and Anti-Fungal Properties” (Plants, 2023).
≈ marks a conversion by molar mass, not a printed value. Like-named read-outs stand apart in the source and are kept apart here.

Assays:
[1] = tested on: S. aureus; set-up: method as in PMID 24575401; conditions: cited from earlier work
[2] = tested on: B. subtilis; set-up: method as in PMID 24575401; conditions: cited from earlier work
[3] = tested on: Salmonella sp.; set-up: method as in PMID 24575401; conditions: cited from earlier work
[4] = tested on: HeLa cancer cells; set-up: method as in doi:10.1016/j.sajb.2015.08.016; conditions: dose-dependent cytotoxicity; cited from earlier work
[5] = tested on: IL-6 production; set-up: method as in PMID 25573777; conditions: TNF-α stimulated MG-63 cells; cited from earlier work
[6] = tested on: Staphylococcus aureus; set-up: method as in PMID 19007012; conditions: filter paper slice method; cited from earlier work
[7] = in vitro
Method: Cytotoxicity of compounds and extracts was tested against mammalian cells using the MTT assay. MCF-7 cancer cells were grown in a 5% CO2 incubator in Dulbecco’s Modified Eagle’s Medium (DMEM, Highveld Biological, Johannesburg, South Africa) supplemented with 10% fetal calf serum (Adcock-Ingram, Johannesburg, South Africa) and 1% penicillin-streptomycin (10,000 U/mL and 10 mg/mL streptomycin, Sigma Aldrich). In a 5% CO2 incubator, Vero cells were grown in a minimal essential medium (MEM, Highveld Biological, South Africa) supplemented with 5% fetal calf serum (Adcock-Ingram) and 0.1% gentamicin (Virbac). Cell suspensions were obtained from 70–80% confluent monolayer cultures and were plated in 96-well cell culture plates at a density of 1 × 10^4. Plates were incubated in a 5% CO2 incubator for 24 h at 37 °C. The cells were exposed to the extracts or compounds dissolved in the media at different concentrations for 48 h. Positive and negative controls were doxorubicin (Pfizer, New York, NYC, USA) and acetone or DMSO, respectively. After that, the wells were rinsed with phosphate-buffered saline (PBS, Sigma) and 200 µL of fresh medium was poured into the wells. Thirty microlitres (5 mg/mL) of MTT (Sigma) dissolved in PBS was added to each well, and the plates were incubated at 37 °C for 4 h. The medium from the wells was removed, rinsed, and 50 µL of 100% DMSO was added to the wells. At a wavelength of 570 nm, absorbance was measured using a microplate reader (BioTek Synergy, Beijing, China). Each sample concentration was tested in quadruplicate in two repeats (n = 8), and the concentration causing 50% inhibition of cell viability (LC50) was calculated. Selectivity index (SI) values for the extracts/compounds were obtained by dividing cytotoxicity LC50 values of normal (Vero) cells by those of the cancer cells.

[8] = tested on: Candida albicans ATCC 10231; experiment: Serial dilution microplate MIC (fungi); assay type: cell-based; conditions: Table 2; for MIC: Candida albicans, read-out: Minimum inhibitory concentration (MIC) C. albicans; for Selectivity index C. albicans: in brackets, Vero LC50 vs MIC
Method: (§1) The MIC value of the plant extracts and isolated compounds against one fungal and five bacterial strains (Salmonella Typhimurium ATCC 39183, Escherichia coli ATCC 25922, Pseudomonas aeruginosa ATCC 27853, Staphylococcus aureus ATCC 29213, Enterococcus faecalis ATCC 29212, and fungi culture, Candida albicans ATCC 10231) was assessed in triplicate using the serial dilution microplate method; acetone and DMSO were used as solvents. Bacterial cultures were grown in Mueller Hinton broth (Sigma Aldrich, St. Louis, MO, USA) overnight and adjusted to McFarland standard 1 (1 × 10^8 CFU/mL). Then, 100 µL of samples were transferred into the first well of a sterile 96-well microtiter plate, which contained 100 µL of water and a 1:1 serial dilution with sterilized distilled water was carried out. In each well, 100 µL of appropriately adjusted fungal or bacterial cultures were added, and the bacteria were subjected to final concentrations of 250–3.9 μg/mL for pure compounds and 2.5–0.02 mg/mL for crude extracts. Amphotericin-B and Gentamicin (Virbac, Carros, France) served as positive controls for fungi and bacteria, respectively. For sterility, water served as control, while acetone served as a negative control. The microplates were then incubated for 24 h at 37 °C. Following incubation, 40 µL of 0.2 mg/mL p-iodonitrotetrazolium violet (INT, Sigma Aldrich) dissolved in water (hot) was added to the wells before being incubated at 37 °C for another 2 h. In the case of fungi, the INT was added before incubation. The MIC was measured visually as the lowest concentration of the compounds/extracts that inhibited proliferation.

[9] = tested on: Escherichia coli ATCC 25922; experiment: Serial dilution microplate MIC; assay type: cell-based; conditions: Table 2; for MIC: Escherichia coli, ATCC25922, isolated compounds, read-out: Minimum inhibitory concentration (MIC) E. coli; for Selectivity index E. coli: in brackets, Vero LC50 vs MIC
Method: as §1

[10] = tested on: Enterococcus faecalis ATCC 29212; experiment: Serial dilution microplate MIC; assay type: cell-based; conditions: Table 2; for MIC: Enterococcus faecalis, read-out: Minimum inhibitory concentration (MIC) E. faecalis; for Selectivity index E. faecalis: in brackets, Vero LC50 vs MIC
Method: as §1

[11] = tested on: Staphylococcus aureus ATCC 29213; experiment: Serial dilution microplate MIC; assay type: cell-based; conditions: Table 2; for MIC: Staphylococcus aureus, read-out: Minimum inhibitory concentration (MIC) S. aureus; for Selectivity index S. aureus: in brackets, Vero LC50 vs MIC
Method: as §1

[12] = tested on: Pseudomonas aeruginosa ATCC 27853; experiment: Serial dilution microplate MIC; assay type: cell-based; conditions: Table 2; for MIC: Pseudomonas aeruginosa, read-out: Minimum inhibitory concentration (MIC) P. aeruginosa; for Selectivity index P. aeruginosa: in brackets, Vero LC50 vs MIC
Method: as §1

[13] = tested on: Salmonella Typhimurium ATCC 39183; experiment: Serial dilution microplate MIC; assay type: cell-based; conditions: for MIC: Salmonella enterica; for Selectivity index S. Typhimurium: in brackets, Vero LC50 vs MIC
Method: as §1

[14] = tested on: one fungal and five bacterial strains; experiment: Serial dilution microplate MIC, whole panel; assay type: cell-based; conditions: isolated compounds, highest concentration 250 µg/mL
Method: as §1

[15] = tested on: Staphylococcus aureus ATCC 43300; set-up: method as in PMID 31119085; conditions: cited from earlier work
[16] = set-up: method as in PMID 23878606; conditions: read-out: EC50 scavenging ABTS; cited from earlier work
[17] = tested on: Stenotrophomonas maltophila DMST 19079; set-up: method as in PMID 31119085; conditions: cited from earlier work
[18] = tested on: Enterococcus faecium UCLA 192; set-up: method as in PMID 31119085; conditions: cited from earlier work
[19] = set-up: method as in PMID 23878606; conditions: read-out: EC50 scavenging DPPH; cited from earlier work
[20] = set-up: method as in PMID 22693528; conditions: cited from earlier work
[21] = tested on: Candida albicans; set-up: method as in PMID 22693528; conditions: cited from earlier work
[22] = tested on: P. aeruginosa; set-up: method as in doi:10.1590/0102-695X20142413348; conditions: cited from earlier work
[23] = tested on: normal human primary fibroblasts; set-up: method as in ref 66 = [66]; 66. NCCLS 2007 Available online: http://www.nccls.org (accessed on 15 March 2022); conditions: cited from earlier work
[24] = tested on: S. aureus, MRSA, Proteus mirabilis, S. typhi, K. pneumoniae, E. coli, Bacillus subtilis, C. albicans and C. tropicalis; conditions: 200µg/mL; cited from earlier work
[25] = tested on: Huh7 cells; set-up: method as in ref 66 = [66]; 66. NCCLS 2007 Available online: http://www.nccls.org (accessed on 15 March 2022); conditions: cited from earlier work
[26] = tested on: HepG2 cells; set-up: method as in ref 66 = [66]; 66. NCCLS 2007 Available online: http://www.nccls.org (accessed on 15 March 2022); conditions: cited from earlier work
[27] = tested on: E. faecalis; set-up: method as in doi:10.1590/0102-695X20142413348; conditions: cited from earlier work
[28] = isolated compounds, Table 2, read-out: Minimum inhibitory concentration (MIC) S. Typhimurium

## C[C@@H]1CC[C@H]2[C@@H](C)C(=O)O[C@@H]3O[C@@]4(C)CC[C@@H]1[C@]32OO4 [Artemisinin]
[1]
  MIC S. aureus: 90 µg/mL (≈ 319 µM)
[2]
  MIC B. subtilis: 90 µg/mL (≈ 319 µM)
[3]
  MIC Salmonella sp.: 90 µg/mL (≈ 319 µM)

## C=C1C(=O)O[C@@H]2C[C@@]3(C)CCCC(=C)[C@@H]3C[C@H]12 [Isoalantolactone]
[4]
  IC50: 8.15 ± 1.16 µM

## COc1cc2ccc(=O)oc2c(OC)c1O[C@H]1O[C@@H](CO)[C@H](O)[C@@H](O)[C@@H]1O [Isofraxidin-7-O-β-D-glucopyranoside, isofraxidin-7-O-β-D-glucopyranoside]
[5]
  Inhibitory activity against IL-6 production: 14%
[6]
  Anti-bacterial effect against Staphylococcus aureus: no activity
[7]; monkey, LC50
  CC50 at 48 h: > 200 µg/mL
[8]; ATCC10231, isolated compounds
  MIC: 250 µg/mL (≈ 650 µM)
[8]
  Selectivity index C. albicans: > 0.8
[9]
  MIC: 250 µg/mL (≈ 650 µM)
  Selectivity index E. coli: > 0.8
[10]; ATCC29212, isolated compounds
  MIC: > 250 µg/mL
[10]
  Selectivity index E. faecalis: < 0.8
[11]; ATCC29213, isolated compounds
  MIC: 250 µg/mL (≈ 650 µM)
[11]
  Selectivity index S. aureus: > 0.8
[12]; ATCC27853, isolated compounds
  MIC: > 250 µg/mL
[12]
  Selectivity index P. aeruginosa: < 0.8
[13]; [28]
  MIC: 250 µg/mL (≈ 650 µM)
[13]; Table 2
  Selectivity index S. Typhimurium: > 0.8
[14]; all tested strains, read-out: MIC against all tested microorganisms
  MIC: ≥ 250 µg/mL
[14]
  MIC against all tested microorganisms: no efficacy

## COc1cc2ccc(=O)oc2cc1O [Scopoletin, scopoletin]
[15]
  MIC Staphylococcus aureus ATCC 43300: 128 µg/mL (≈ 666 µM)
[16]
  EC50: 191.51 ± 0.01 µM
[17]
  MIC Stenotrophomonas maltophila DMST 19079: 256 µg/mL (≈ 1330 µM)
[7]
  CC50 at 48 h: > 200 µg/mL
[8]; ATCC10231, 24 h, isolated compounds
  MIC: 250 µg/mL (≈ 1300 µM)
[8]
  Selectivity index C. albicans: > 0.8
[18]
  MIC Enterococcus faecium UCLA 192: 128 µg/mL (≈ 666 µM)
[19]
  EC50: 647.89 ± 0.07 µM
[9]
  MIC: 62.5 µg/mL (≈ 325 µM)
  Selectivity index E. coli: > 3.2
[9]; listed as scopoletin
  Selectivity index E. coli: 3
[10]; ATCC29212, 24 h, isolated compounds
  MIC: 250 µg/mL (≈ 1300 µM)
[11]; ATCC29213, 24 h, isolated compounds
  MIC: 250 µg/mL (≈ 1300 µM)
[11]; ATCC29213, isolated compounds
  MIC: 250 µg/mL (≈ 1300 µM)
[11]
  Selectivity index S. aureus: > 0.8
[12]; ATCC27853, 24 h, isolated compounds
  MIC: > 250 µg/mL
[12]
  Selectivity index P. aeruginosa: < 0.8
[13]; read-out: Minimum inhibitory concentration (MIC) S. Typhimurium, isolated compounds, Table 2
  MIC: 125 µg/mL (≈ 650 µM)
[13]; Table 2
  Selectivity index S. Typhimurium: > 1.6
[20]
  IC50 DPPH radical: 1.24 µg/mL (≈ 6.45 µM)
[21]
  Activity against Candida albicans: ineffective

## CC[C@@H](CC[C@@H](C)[C@H]1CC[C@H]2[C@@H]3CC=C4C[C@@H](O[C@H]5O[C@@H](CO)[C@H](O)[C@@H](O)[C@@H]5O)CC[C@]4(C)[C@H]3CC[C@]12C)C(C)C [Sitosterol-3-O-β-D-glucopyranoside, sitosterol-3-O-β-D-glucopyranoside]
[22]
  MIC P. aeruginosa: 10 µg/mL (≈ 17.3 µM)
[7]; monkey, LC50
  CC50 at 48 h: > 200 µg/mL
[8]; ATCC10231, isolated compounds
  MIC: 250 µg/mL (≈ 433 µM)
[8]
  Selectivity index C. albicans: > 0.8
[23]
  Cytotoxic effects on normal human primary fibroblasts: not against normal human primary fibroblasts
[24]
  Anti-bacterial and anti-fungal activity: wide spectrum of anti-bacterial and anti-fungal activity
[25]
  IC50 proliferation of Huh7 cells: 5.25 ± 0.14 µg/mL
[26]
  IC50 proliferation of HepG2 cells: 4.64 ± 0.48 µg/mL
[9]
  MIC: > 250 µg/mL
  Selectivity index E. coli: < 0.8
[10]; ATCC29212, isolated compounds
  MIC: 31.2 µg/mL (≈ 54.2 µM)
[10]
  Selectivity index E. faecalis: > 6.4
[10]; listed as sitosterol-3-O-β-D-glucopyranoside
  Selectivity index E. faecalis: more than 6
[11]; ATCC29213, isolated compounds
  MIC: > 250 µg/mL
[11]
  Selectivity index S. aureus: < 0.8
[12]; ATCC27853, isolated compounds
  MIC: > 250 µg/mL
[12]
  Selectivity index P. aeruginosa: < 0.8
[13]; [28]
  MIC: > 250 µg/mL
[13]; Table 2
  Selectivity index S. Typhimurium: < 0.8
[27]
  MIC E. faecalis: 15 µg/mL (≈ 26 µM)
